Laboratory results as given in PubChem BioAssay (NCI).
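Five concentrations, 48 hours, 96-well plates. Here, GI50 denotes the concentration required for 50% inhibition of growth. TGI marks complete inhibition of growth.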

Experiments:
Test in all cases: inhibition of tumour cell growth, NCI panel, 48 h
M14 melanoma = system: M14 melanoma
OVCAR-5 ovarian = system: OVCAR-5 ovarian
MALME-3M melanoma = system: MALME-3M melanoma
SF-295 CNS = system: SF-295 CNS
NCI-H226 lung = system: NCI-H226 lung
HS 578T breast = system: HS 578T breast
HCT-116 colon = system: HCT-116 colon
BT-549 breast = system: BT-549 breast
NCI-H460 lung = system: NCI-H460 lung
MDA-MB-435 = system: MDA-MB-435
HCT-15 colon = system: HCT-15 colon
CCRF-CEM leukemia = system: CCRF-CEM leukemia
UACC-257 melanoma = system: UACC-257 melanoma
A498 renal = system: A498 renal
TK-10 renal = system: TK-10 renal
SW-620 colon = system: SW-620 colon
HOP-92 NSCLC = system: HOP-92 NSCLC
MDA-MB-231 breast = system: MDA-MB-231 breast
K-562 leukemia = system: K-562 leukemia
PC-3 prostate = system: PC-3 prostate
RPMI-8226 leukemia = system: RPMI-8226 leukemia
UO-31 renal = system: UO-31 renal
T-47D breast = system: T-47D breast
SNB-19 CNS = system: SNB-19 CNS
DU-145 prostate = system: DU-145 prostate
SF-539 CNS = system: SF-539 CNS
HL-60(TB) leukemia = system: HL-60(TB) leukemia
OVCAR-8 ovarian = system: OVCAR-8 ovarian
HOP-62 NSCLC = system: HOP-62 NSCLC

Structure (SMILES): COc1cccc2nc(Nc3cccc(NC(=O)c4ccc(CN5CCN(C)CC5)c(C(F)(F)F)c4)c3)ccc12
- GI50 (M14 melanoma): 1760 nM
- TGI (M14 melanoma): 3.63 µM
- GI50 (OVCAR-5 ovarian): 1840 nM
- TGI (OVCAR-5 ovarian): 3.71 µM
- GI50 (MALME-3M melanoma): 1650 nM
- TGI (MALME-3M melanoma): 3.08 µM
- GI50 (SF-295 CNS): 1770 nM
- TGI (SF-295 CNS): 3.31 µM
- GI50 (NCI-H226 lung): 4.63 µM
- TGI (NCI-H226 lung): 15.8 µM
- GI50 (HS 578T breast): 1840 nM
- TGI (HS 578T breast): 4.57 µM
- GI50 (HCT-116 colon): 1820 nM
- TGI (HCT-116 colon): 3.57 µM
- GI50 (BT-549 breast): 7.01 µM
- TGI (BT-549 breast): 19.2 µM
- GI50 (NCI-H460 lung): 1710 nM
- TGI (NCI-H460 lung): 3.19 µM
- GI50 (MDA-MB-435): 1680 nM
- TGI (MDA-MB-435): 3.21 µM
- GI50 (HCT-15 colon): 1780 nM
- TGI (HCT-15 colon): 3.56 µM
- GI50 (CCRF-CEM leukemia): 2100 nM
- TGI (CCRF-CEM leukemia): 6.43 µM
- GI50 (UACC-257 melanoma): 1980 nM
- TGI (UACC-257 melanoma): 3.85 µM
- GI50 (A498 renal): 2000 nM
- TGI (A498 renal): 4.98 µM
- GI50 (TK-10 renal): 2150 nM
- TGI (TK-10 renal): 4.65 µM
- GI50 (SW-620 colon): 1730 nM
- TGI (SW-620 colon): 3.27 µM
- GI50 (HOP-92 NSCLC): 1500 nM
- TGI (HOP-92 NSCLC): 3.86 µM
- GI50 (MDA-MB-231 breast): 1770 nM
- TGI (MDA-MB-231 breast): 3.39 µM
- GI50 (K-562 leukemia): 2700 nM
- TGI (K-562 leukemia): > 100 µM
- GI50 (PC-3 prostate): 1700 nM
- TGI (PC-3 prostate): 4.46 µM
- GI50 (RPMI-8226 leukemia): 2780 nM
- TGI (RPMI-8226 leukemia): 8.34 µM
- GI50 (UO-31 renal): 1640 nM
- TGI (UO-31 renal): 3.18 µM
- GI50 (T-47D breast): 2280 nM
- TGI (T-47D breast): 5.78 µM
- GI50 (SNB-19 CNS): 1780 nM
- TGI (SNB-19 CNS): 3.38 µM
- GI50 (DU-145 prostate): 1980 nM
- TGI (DU-145 prostate): 4.42 µM
- GI50 (SF-539 CNS): 1640 nM
- TGI (SF-539 CNS): 3.01 µM
- GI50 (HL-60(TB) leukemia): 1220 nM
- TGI (HL-60(TB) leukemia): 4.09 µM
- GI50 (OVCAR-8 ovarian): 3.09 µM
- TGI (OVCAR-8 ovarian): 10.7 µM
- GI50 (HOP-62 NSCLC): 1560 nM
